# Results taken from ChEMBL document CHEMBL3886972, “Chemical entities” (2016).
# How the values were obtained:
# [1] = biological target: DNA-dependent protein kinase catalytic subunit (Homo sapiens, UniProt P78527); test: ADP Hunter Plus Assay: The kinase activity was measured by using the commercial ADP Hunter Plus assay available from DiscoveRx (#90-0083), which is a homogeneous assay to measure the accumulation of ADP, a universal product of kinase activity. The enzyme, DNA-PK was purchased from Promega (#V5811). The assay was done following the manufacturer recommendations with slight modifications: Mainly the kinase buffer was replace by 15 mM HEPES, pH 7.5, 10 mM MgCl2, 20 mM NaCl, 1 mM EGTA, 0.1 mg/mL BGG, 0.02% Tween 20. The DNA-PK was assayed in a titration experiment to determine the optimal protein concentration for the inhibition assay. To calculate the […] of the Compounds, serial 1:3 dilutions of the compounds were added to the enzyme at a fixed concentration (2 U/uL). The enzyme was preincubated with the inhibitor and 200 uM DNA substrate and then ATP was added to a final 75 uM concentration. Reaction was carried out for 1 hour at 37° C. Reagent A and B were sequentially added to the wells and plates were incubated for 30 min at RT. Fluorescence counts were read in a EnVision instrument (Perkin Elmer) with the recommended settings (550 and 590 nm as excitation and emission wavelengths, respectively).
# [2] = biological target: PI3-kinase p110-alpha/p85-alpha (Homo sapiens, UniProt P42336); test: null: The kinase activity was measured by using the commercial ADP Hunter Plus assay available from DiscoveRx (#33-016), which is a homogeneous assay to measure the accumulation of ADP, a universal product of kinase activity. […] The reaction was carried out for 1 hour at 25° C. Reagent A and B were sequentially added to the wells and plates were incubated for 30 min at 37° C. Fluorescence counts were read in a Victor instrument (Perkin Elmer) with the recommended settings (544 and 580 nm as excitation and emission wavelengths, respectively).; format: protein-complex assay
# Sequence of PI3-kinase p110-alpha/p85-alpha (P27986 whole entry): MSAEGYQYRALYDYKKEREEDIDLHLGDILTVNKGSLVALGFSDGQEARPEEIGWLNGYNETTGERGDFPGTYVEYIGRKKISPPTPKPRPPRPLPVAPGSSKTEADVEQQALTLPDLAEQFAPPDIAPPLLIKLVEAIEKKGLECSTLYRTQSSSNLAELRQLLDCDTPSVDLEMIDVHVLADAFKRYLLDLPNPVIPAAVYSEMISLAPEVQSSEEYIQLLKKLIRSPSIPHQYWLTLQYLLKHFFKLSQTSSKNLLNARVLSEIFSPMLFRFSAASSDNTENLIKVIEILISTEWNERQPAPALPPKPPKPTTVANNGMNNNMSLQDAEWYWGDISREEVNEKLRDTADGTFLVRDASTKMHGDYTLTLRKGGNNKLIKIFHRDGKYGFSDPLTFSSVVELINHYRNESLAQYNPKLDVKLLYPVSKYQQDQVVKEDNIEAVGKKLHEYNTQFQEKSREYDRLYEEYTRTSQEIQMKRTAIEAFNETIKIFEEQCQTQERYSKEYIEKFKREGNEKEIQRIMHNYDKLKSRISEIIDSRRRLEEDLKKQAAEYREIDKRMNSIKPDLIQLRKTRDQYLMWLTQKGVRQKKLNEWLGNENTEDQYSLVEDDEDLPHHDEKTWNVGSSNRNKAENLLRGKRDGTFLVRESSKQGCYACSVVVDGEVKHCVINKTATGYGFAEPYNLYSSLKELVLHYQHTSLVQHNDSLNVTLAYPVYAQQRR
# Sequence of PI3-kinase p110-alpha/p85-alpha (P42336 whole entry): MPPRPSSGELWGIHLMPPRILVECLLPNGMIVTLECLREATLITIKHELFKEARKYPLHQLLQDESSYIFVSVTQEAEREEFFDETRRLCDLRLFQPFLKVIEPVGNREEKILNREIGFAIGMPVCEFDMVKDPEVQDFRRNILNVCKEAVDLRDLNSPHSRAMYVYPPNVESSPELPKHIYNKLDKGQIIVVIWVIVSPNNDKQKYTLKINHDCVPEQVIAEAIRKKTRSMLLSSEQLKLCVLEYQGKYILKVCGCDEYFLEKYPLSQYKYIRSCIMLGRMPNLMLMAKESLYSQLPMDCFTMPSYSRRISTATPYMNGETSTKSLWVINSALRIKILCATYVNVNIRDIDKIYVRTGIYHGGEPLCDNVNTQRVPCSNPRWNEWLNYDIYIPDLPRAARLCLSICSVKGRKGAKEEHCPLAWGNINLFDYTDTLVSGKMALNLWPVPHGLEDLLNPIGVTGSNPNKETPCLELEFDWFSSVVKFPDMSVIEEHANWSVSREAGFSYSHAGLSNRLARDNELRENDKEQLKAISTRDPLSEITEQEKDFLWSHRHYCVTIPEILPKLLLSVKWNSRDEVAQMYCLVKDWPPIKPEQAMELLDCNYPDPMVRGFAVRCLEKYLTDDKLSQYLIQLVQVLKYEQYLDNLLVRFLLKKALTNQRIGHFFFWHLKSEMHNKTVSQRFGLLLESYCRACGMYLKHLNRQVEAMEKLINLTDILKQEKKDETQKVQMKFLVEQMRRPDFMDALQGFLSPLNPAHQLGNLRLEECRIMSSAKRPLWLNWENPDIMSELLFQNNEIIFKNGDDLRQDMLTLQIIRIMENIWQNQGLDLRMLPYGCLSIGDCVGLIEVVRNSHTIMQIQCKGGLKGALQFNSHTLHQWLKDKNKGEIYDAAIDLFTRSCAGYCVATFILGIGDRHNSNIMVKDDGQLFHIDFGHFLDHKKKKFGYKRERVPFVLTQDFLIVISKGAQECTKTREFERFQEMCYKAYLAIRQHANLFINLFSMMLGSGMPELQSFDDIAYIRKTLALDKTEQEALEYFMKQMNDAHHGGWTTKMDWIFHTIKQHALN
compound,measurement,setting,value
O=S(=O)(Cc1nc(-c2cccc3[nH]ccc23)nc2c1OCC1COCCN21)C(F)(F)F (stereo not given),IC50,[1],≥ 25 µM
same,IC50,[2],14.9 µM
C[S@TB17](=O)(=O)Nc1nc(-c2cccc3[nH]ccc23)nc2c1OCC1COCCN21 (stereo not given),IC50,[1],10 µM
same,IC50,[2],6.95 µM
CS(=O)(=O)c1cccc(-c2nc(-c3cccc4[nH]ccc34)nc3c2OCC2COCCN32)c1 (stereo not given),IC50,[1],5.04 µM
same,IC50,[2],10.6 µM
CS(=O)(=O)C1(c2nc(-c3ccnc4[nH]ccc34)nc3c2OCC2COCCN32)CCOCC1 (stereo not given),IC50,[1],10 µM
same,IC50,[2],8.5 µM
C[S@TB17](=O)(=O)C1(c2nc(-c3cc(F)cc4[nH]ccc34)nc3c2OCCC2COCCN32)CCOCC1 (stereo not given),IC50,[1],≥ 25 µM
same,IC50,[2],> 10 µM
CC(C)Nc1nc2ccccc2n1-c1nc2c(c(C(C)(C)S(C)(=O)=O)n1)OC[C@@H]1COCCN21,IC50,[1],4.3 µM
same,IC50,[2],6.61 µM
CNc1nc2ccccc2n1-c1nc2c(c(C3(S(C)(=O)=O)CCOCC3)n1)OCCC1COCCN21 (stereo not given),IC50,[1],10 µM
same,IC50,[2],≥ 50 µM
CC(C)(C#N)c1nc(-c2cccc3[nH]ccc23)nc2c1OCC1COCCN21 (stereo not given),IC50,[1],10 µM
same,IC50,[2],1.67 µM
CS(=O)(=O)C1(c2nc(-c3cncc4[nH]ccc34)nc3c2OCC2COCCN32)CCOCC1 (stereo not given),IC50,[1],≥ 25 µM
same,IC50,[2],2 µM
CC(C)(c1nc(-c2cccc3[nH]ccc23)nc2c1OCC[C@H]1COCCN21)S(C)(=O)=O,IC50,[2],19.3 µM
CS(=O)(=O)C1(c2nc(-c3c(F)ccc4[nH]ccc34)nc3c2OCC2COCCN32)CCOCC1 (stereo not given),IC50,[1],10 µM
same,IC50,[2],21 µM
CS(=O)(=O)C1(c2nc(-c3cccc4[nH]ccc34)nc3c2OC[C@@H]2COCCN32)CCOCC1,IC50,[2],4.9 µM
CS(=O)(=O)C1(c2nc(-c3cc(F)cc4[nH]ccc34)nc3c2OCC2COCCN32)CCOCC1 (stereo not given),IC50,[1],10 µM
same,IC50,[2],6 µM
CS(=O)(=O)C1(c2nc(-c3cccc4[nH]ccc34)nc3c2OCC[C@@H]2COCCN32)CCOCC1,IC50,[1],≥ 25 µM
same,IC50,[2],≥ 50 µM
CC(C)(c1nc(-c2cccc3[nH]ccc23)nc2c1OCC1COCCN21)S(=O)(=O)C1CC1 (stereo not given),IC50,[2],2.4 µM
CS(=O)(=O)C1(c2nc(-c3cccc4[nH]ccc34)nc3c2OC[C@@H]2COCCN32)CCNCC1,IC50,[1],4.93 µM
same,IC50,[2],1.98 µM
CC(C)(c1nc(-c2cccc3[nH]ccc23)nc2c1OCC1COCCN21)S(C)(=O)=O (stereo not given),IC50,[1],17.3 µM
same,IC50,[2],1.7 µM
CS(=O)(=O)C1(c2nc(-c3cccc4[nH]ccc34)nc3c2OCC2COCCN32)CC1 (stereo not given),IC50,[1],≥ 25 µM
same,IC50,[2],2.5 µM
CS(=O)(=O)C1(c2nc(-c3cccc4[nH]ccc34)nc3c2OC[C@H]2COCCN32)CCOCC1,IC50,[2],11.5 µM
CNc1nc2cc(Cl)ccc2n1-c1nc2c(c(C3(S(C)(=O)=O)CCC3)n1)OC[C@@H]1COCCN21,IC50,[1],10 µM
same,IC50,[2],≥ 50 µM
Cc1cc2c(-c3nc4c(c(C5(S(C)(=O)=O)CCOCC5)n3)OCC3COCCN43)cccc2[nH]1 (stereo not given),IC50,[1],≥ 25 µM
same,IC50,[2],10.3 µM
c1cc(-c2nc(-c3cccc4[nH]ccc34)c3c(n2)N2CCOCC2CO3)c2cc[nH]c2c1 (stereo not given),IC50,[1],10 µM
same,IC50,[2],6.55 µM
CNc1nc2ccccc2n1-c1nc2c(c(C3(S(C)(=O)=O)CCOCC3)n1)OCC1COCCN21 (stereo not given),IC50,[1],10 µM
same,IC50,[2],≥ 50 µM
CC(C)(c1nc(-c2c(F)ccc3[nH]ccc23)nc2c1OCC1COCCN21)S(C)(=O)=O (stereo not given),IC50,[2],7.9 µM
CNc1nc2ccccc2n1-c1nc2c(c(C(C)(C)S(C)(=O)=O)n1)OCC1COCCN21 (stereo not given),IC50,[2],2.8 µM
CC1(c2nc(-c3cccc4[nH]ccc34)nc3c2OCC2COCCN32)CCCS1(=O)=O (stereo not given),IC50,[1],10 µM
same,IC50,[2],6.9 µM
CC(C)(c1nc(-c2ccnc3[nH]ccc23)nc2c1OCC1COCCN21)S(C)(=O)=O (stereo not given),IC50,[1],2.82 µM
same,IC50,[2],0.67 µM
COc1ccc(-c2nc3c(c(C4(S(C)(=O)=O)CCOCC4)n2)OCC2COCCN32)c2cc[nH]c12 (stereo not given),IC50,[1],≥ 25 µM
same,IC50,[2],16.9 µM
CN1CCC(c2nc(-c3cccc4[nH]ccc34)nc3c2OCC2COCCN32)(S(C)(=O)=O)CC1 (stereo not given),IC50,[1],≥ 25 µM
same,IC50,[2],12.5 µM
CS(=O)(=O)C1(c2nc(-c3cccc4[nH]ccc34)nc3c2OC[C@@H]2COCCN32)CCC1,IC50,[1],10 µM
same,IC50,[2],3.16 µM
CNc1nc2ccccc2n1-c1nc2c(c(C(C)(C)S(C)(=O)=O)n1)OC[C@@H]1COCCN21,IC50,[1],1.51 µM
same,IC50,[2],1.9 µM
CC(C)(c1nc(-c2cccc3[nH]ncc23)nc2c1OC[C@H]1COCCN21)S(C)(=O)=O,IC50,[1],4.15 µM
same,IC50,[2],0.4 µM
CS(=O)(=O)Cc1nc(-c2cccc3[nH]ccc23)nc2c1OCC1COCCN21 (stereo not given),IC50,[1],10 µM
same,IC50,[2],6.6 µM
COc1cc(-c2nc3c(c(C4([S@TB1](C)(=O)=O)CCOCC4)n2)OCCC2COCCN32)c2cc[nH]c2c1 (stereo not given),IC50,[1],≥ 25 µM
same,IC50,[2],23.3 µM
CCOC(=O)N1CCC(c2nc(-c3cccc4[nH]ccc34)nc3c2OC[C@@H]2COCCN32)(S(C)(=O)=O)CC1,IC50,[1],10 µM
same,IC50,[2],7.38 µM
CCNc1nc2ccccc2n1-c1nc2c(c(C(C)(C)S(C)(=O)=O)n1)OC[C@@H]1COCCN21,IC50,[1],0.196 µM
same,IC50,[2],2.65 µM
CC(C)(O)c1nc(-c2cccc3[nH]ccc23)nc2c1OCC1COCCN21 (stereo not given),IC50,[1],7.21 µM
same,IC50,[2],2.39 µM
CNc1nc2ccccc2n1-c1nc2c(c(C(C)(C)O)n1)OCC1COCCN21 (stereo not given),IC50,[1],3.18 µM
same,IC50,[2],2.17 µM
CCCNc1nc2ccccc2n1-c1nc2c(c(C(C)(C)S(C)(=O)=O)n1)OC[C@@H]1COCCN21,IC50,[1],6.65 µM
same,IC50,[2],6.25 µM
CNc1nc2ccccc2n1-c1nc2c(c(C(C)(C)[S@TB1](C)(=O)=O)n1)OCCC1COCCN21 (stereo not given),IC50,[1],1.88 µM
CNc1nc2ccc(Cl)cc2n1-c1nc2c(c(C3(S(C)(=O)=O)CCC3)n1)OC[C@@H]1COCCN21,IC50,[1],10 µM
same,IC50,[2],≥ 50 µM
CC(C)(O)c1nc(-c2cc(F)cc3[nH]ccc23)nc2c1OC[C@@H]1COCCN21,IC50,[1],0.886 µM
same,IC50,[2],2.27 µM
CS(=O)(=O)C1(c2nc(-c3cccc4[nH]ccc34)nc3c2OCC2COCCN32)CCOCC1 (stereo not given),IC50,[2],13.3 µM
COc1cc(-c2nc3c(c(C4(S(C)(=O)=O)CCOCC4)n2)OCC2COCCN32)c2cc[nH]c2c1 (stereo not given),IC50,[1],10 µM
same,IC50,[2],5 µM
